21 compounds from patent US12421232B2, “Kinase inhibitor compounds and compositions and methods of use” (ICAHN SCHOOL OF MEDICINE AT MOUNT SINAI, priority 2018, dated 2025) can be followed below.

Series [1] has as its system human β-cells (dispersed human islet cells). In words: Human β-cell proliferation assay (Ki67 and insulin staining). To be noted: for Human β-Cell proliferation: 96 hours. In kind it is cell-based.
Series [2] relates to NFAT2-GFP nuclear translocation in R7T1 rodent beta cells. The series can be described thus: NFAT2 translocation assay. In kind it is cell-based. To be noted: 10 μM, 24 hours. From the text:
NFAT2T Translocation Assay. […] At least 1000 cells were counted.

For series [3], the target named is T1, CSNK1G2 (Homo sapiens, UniProt P78368).
T1 construct: purchased DiscoverX
T1 sequence (P78368 whole entry): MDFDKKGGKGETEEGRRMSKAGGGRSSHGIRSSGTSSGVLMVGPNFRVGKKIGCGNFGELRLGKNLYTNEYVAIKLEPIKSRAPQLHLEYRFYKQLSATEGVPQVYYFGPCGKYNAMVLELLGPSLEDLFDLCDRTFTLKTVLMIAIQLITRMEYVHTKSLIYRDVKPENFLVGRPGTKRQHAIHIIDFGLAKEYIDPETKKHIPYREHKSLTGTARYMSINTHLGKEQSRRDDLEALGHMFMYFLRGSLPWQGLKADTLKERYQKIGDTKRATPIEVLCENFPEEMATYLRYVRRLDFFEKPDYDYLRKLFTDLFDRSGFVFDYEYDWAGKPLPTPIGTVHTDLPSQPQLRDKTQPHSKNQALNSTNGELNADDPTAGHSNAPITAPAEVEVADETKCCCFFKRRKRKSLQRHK
The series can be described thus: KINOMEscan Assay (DiscoverX). To be noted: CSNK1G2; 10 μM. In kind it is binding.

The target of series [4] is T2, CSNK2A1 (Homo sapiens, UniProt P68400).
T2 construct: purchased DiscoverX
T2 sequence (P68400 whole entry): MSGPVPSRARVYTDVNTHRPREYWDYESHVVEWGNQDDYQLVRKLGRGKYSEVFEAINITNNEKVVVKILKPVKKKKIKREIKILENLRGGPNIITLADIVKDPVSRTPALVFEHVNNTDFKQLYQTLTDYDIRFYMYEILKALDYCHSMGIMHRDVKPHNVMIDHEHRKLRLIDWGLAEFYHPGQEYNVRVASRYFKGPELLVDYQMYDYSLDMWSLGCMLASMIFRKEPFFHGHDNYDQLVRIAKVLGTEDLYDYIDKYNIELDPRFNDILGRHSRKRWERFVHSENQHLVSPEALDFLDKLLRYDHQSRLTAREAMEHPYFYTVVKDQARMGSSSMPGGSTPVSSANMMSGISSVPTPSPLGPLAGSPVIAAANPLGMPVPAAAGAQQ
The series can be described thus: KINOMEscan Assay (DiscoverX). In kind it is binding. To be noted: CSNK2A1; 10 μM.

Series [5] has as its target T3, FLT3(D835V) (Homo sapiens, UniProt P36888, D835V).
T3 construct: purchased DiscoverX
T3 sequence (P36888 27-993 D835V): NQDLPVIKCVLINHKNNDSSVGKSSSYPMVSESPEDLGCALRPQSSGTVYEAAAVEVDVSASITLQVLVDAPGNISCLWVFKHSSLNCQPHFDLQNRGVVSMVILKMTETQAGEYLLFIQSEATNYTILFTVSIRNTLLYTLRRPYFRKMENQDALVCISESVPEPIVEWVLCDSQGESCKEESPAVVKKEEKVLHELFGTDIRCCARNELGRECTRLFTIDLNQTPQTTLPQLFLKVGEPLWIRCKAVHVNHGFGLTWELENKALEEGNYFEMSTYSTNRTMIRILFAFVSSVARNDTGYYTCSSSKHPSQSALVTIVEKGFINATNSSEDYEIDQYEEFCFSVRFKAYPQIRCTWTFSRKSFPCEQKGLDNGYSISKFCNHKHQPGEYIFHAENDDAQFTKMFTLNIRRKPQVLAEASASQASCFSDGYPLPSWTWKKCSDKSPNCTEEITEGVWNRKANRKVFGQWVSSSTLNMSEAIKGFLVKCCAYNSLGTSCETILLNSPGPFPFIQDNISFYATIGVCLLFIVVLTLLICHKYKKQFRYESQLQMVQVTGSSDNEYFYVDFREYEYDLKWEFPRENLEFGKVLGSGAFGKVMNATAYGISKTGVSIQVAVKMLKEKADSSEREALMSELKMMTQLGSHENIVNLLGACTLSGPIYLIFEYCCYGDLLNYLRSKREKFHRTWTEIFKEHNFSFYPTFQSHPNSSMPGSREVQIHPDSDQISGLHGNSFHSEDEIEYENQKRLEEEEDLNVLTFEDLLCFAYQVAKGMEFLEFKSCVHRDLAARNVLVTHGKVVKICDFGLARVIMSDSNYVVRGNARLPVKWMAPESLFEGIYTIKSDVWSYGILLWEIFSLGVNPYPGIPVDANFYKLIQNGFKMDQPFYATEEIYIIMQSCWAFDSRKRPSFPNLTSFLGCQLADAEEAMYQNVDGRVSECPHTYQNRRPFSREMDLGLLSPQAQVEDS
In words: KINOMEscan Assay (DiscoverX). In kind it is binding. To be noted: FLT3(D835V) mutant; 10 μM; read-out: % DMSO Ctrl.

Series [6] has as its target T4, HIPK2 (Homo sapiens, UniProt Q9H2X6).
T4 construct: purchased DiscoverX
In words: KINOMEscan Assay (DiscoverX). To be noted: HIPK2; 10 μM. In kind it is binding.

The target of series [7] is T5, HIPK3 (Homo sapiens, UniProt Q9H422).
T5 construct: purchased DiscoverX
In words: KINOMEscan Assay (DiscoverX). In kind it is binding. To be noted: HIPK3; 10 μM.

The target in series [8] is T6, IRAK1 (Homo sapiens, UniProt P51617).
T6 construct: purchased DiscoverX
T6 sequence (P51617 whole entry): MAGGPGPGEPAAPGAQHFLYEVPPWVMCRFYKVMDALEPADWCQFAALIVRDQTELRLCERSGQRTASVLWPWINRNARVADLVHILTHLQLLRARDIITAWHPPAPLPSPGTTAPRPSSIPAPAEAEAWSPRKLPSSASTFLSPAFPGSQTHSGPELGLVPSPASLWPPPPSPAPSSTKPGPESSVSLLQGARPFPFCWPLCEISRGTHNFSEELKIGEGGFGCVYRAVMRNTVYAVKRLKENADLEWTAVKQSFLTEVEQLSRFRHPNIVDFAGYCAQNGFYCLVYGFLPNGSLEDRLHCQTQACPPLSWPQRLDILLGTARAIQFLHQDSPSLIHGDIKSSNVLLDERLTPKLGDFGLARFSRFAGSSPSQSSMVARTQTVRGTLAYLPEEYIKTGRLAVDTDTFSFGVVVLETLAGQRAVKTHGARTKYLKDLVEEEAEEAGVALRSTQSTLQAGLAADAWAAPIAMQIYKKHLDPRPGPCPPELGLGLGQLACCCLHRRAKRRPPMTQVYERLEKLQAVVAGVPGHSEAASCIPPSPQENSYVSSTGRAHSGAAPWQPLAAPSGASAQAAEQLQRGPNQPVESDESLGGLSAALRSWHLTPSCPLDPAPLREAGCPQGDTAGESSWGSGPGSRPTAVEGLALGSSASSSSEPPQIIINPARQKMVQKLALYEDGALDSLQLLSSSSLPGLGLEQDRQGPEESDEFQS
In words: KINOMEscan Assay (DiscoverX). In kind it is binding. To be noted: IRAK1; 10 μM.

Series [9] has as its target T7, JAK3(JH1DOMAIN-CATALYTIC) (Homo sapiens, UniProt P52333).
T7 construct: JH1DOMAIN; purchased DiscoverX
The series can be described thus: KINOMEscan Assay (DiscoverX). In kind it is binding. To be noted: JAK3(JH1DOMAIN-[…]); 10 μM; read-out: % DMSO Ctrl.

The target of series [10] is T8, PIK3CG (Homo sapiens, UniProt P48736).
T8 construct: purchased DiscoverX
In words: KINOMEscan Assay (DiscoverX). In kind it is binding. To be noted: read-out: % DMSO Ctrl.

The target in series [11] is T9, PIM3 (Homo sapiens, UniProt Q86V86).
T9 construct: purchased DiscoverX
In words: KINOMEscan Assay (DiscoverX). In kind it is binding. To be noted: PIM3; 10 μM; read-out: % DMSO Ctrl.

Series [12] concerns the target T10, VPS34 (Homo sapiens, UniProt Q8NEB9).
T10 construct: purchased DiscoverX
The series can be described thus: KINOMEscan Assay (DiscoverX). To be noted: VPS34; 10 μM. In kind it is binding.

In series [13] the target is DYRK1A (Homo sapiens, UniProt Q13627). In words: FRET-based LanthaScreen Eu Kinase Binding Assay (Life Technologies). A general note: In TR-FRET formats the signal depends on donor and acceptor labels being close together.
For series [14], the system named is FLT3(ITD). The series can be described thus: KINOMEscan Assay (DiscoverX). To be noted: FLT3(ITD) mutant; 10 μM. In kind it is binding.
Series [15] concerns FLT3(ITD,D835V). In words: KINOMEscan Assay (DiscoverX). In kind it is binding. To be noted: FLT3(ITD,D835V) mutant; 10 μM.
Where [16] appears, read: 10 μM, KI67 labeling of insulin cells.

T10 sequence (Q8NEB9 whole entry): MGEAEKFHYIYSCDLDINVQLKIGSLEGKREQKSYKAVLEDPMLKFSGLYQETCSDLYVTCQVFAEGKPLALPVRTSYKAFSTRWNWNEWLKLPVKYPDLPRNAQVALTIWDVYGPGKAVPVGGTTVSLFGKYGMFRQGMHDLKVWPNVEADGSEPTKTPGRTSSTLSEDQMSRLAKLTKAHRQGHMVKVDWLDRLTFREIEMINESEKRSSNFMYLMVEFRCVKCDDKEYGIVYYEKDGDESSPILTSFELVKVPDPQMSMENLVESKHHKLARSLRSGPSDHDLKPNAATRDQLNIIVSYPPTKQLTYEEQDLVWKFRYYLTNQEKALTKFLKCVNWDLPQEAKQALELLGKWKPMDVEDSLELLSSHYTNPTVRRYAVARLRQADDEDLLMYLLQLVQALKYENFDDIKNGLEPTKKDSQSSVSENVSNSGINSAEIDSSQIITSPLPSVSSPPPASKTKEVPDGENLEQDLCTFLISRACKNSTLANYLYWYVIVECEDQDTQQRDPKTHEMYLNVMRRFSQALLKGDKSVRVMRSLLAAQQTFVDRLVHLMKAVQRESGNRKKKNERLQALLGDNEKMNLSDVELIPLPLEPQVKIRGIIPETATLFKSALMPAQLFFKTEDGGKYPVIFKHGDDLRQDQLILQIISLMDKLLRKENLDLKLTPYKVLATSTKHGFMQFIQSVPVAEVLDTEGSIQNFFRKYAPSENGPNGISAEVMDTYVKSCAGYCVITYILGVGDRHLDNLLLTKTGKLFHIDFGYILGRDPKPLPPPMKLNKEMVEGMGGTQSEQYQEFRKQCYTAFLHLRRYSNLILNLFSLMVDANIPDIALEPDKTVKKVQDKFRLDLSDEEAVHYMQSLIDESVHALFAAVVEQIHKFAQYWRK
T4 sequence (Q9H2X6 whole entry): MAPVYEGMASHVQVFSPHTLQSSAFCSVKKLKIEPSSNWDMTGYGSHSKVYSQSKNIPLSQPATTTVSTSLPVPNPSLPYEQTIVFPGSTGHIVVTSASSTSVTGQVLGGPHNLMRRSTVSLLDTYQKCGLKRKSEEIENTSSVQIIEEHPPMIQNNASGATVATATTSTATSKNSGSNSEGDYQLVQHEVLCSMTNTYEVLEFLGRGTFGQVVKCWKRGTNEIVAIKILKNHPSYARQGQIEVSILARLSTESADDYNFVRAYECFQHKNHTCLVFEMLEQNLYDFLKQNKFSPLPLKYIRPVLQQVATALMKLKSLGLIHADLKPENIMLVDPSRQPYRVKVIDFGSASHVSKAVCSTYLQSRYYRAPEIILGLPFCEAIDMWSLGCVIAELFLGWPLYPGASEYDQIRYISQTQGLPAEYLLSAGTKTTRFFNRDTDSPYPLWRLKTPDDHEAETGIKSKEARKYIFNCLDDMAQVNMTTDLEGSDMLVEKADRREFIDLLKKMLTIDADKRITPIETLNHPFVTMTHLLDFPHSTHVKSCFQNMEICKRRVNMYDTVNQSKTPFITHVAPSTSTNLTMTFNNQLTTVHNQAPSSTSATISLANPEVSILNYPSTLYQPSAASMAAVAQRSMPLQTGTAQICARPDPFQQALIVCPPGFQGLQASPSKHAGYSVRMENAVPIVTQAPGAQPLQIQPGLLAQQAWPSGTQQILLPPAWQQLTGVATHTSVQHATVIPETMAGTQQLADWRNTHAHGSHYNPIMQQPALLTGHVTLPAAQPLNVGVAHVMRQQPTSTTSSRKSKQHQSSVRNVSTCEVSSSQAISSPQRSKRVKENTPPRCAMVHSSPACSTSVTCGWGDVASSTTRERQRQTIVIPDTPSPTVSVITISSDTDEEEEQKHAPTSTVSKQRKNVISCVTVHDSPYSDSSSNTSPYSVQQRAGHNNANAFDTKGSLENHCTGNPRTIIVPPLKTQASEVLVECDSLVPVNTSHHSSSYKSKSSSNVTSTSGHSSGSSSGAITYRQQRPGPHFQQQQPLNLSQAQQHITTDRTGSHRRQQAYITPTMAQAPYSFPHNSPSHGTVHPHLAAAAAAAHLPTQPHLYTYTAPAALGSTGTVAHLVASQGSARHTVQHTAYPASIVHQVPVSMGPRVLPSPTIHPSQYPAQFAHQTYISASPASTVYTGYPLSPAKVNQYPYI
T7 sequence (P52333 822-1111 limits assumed): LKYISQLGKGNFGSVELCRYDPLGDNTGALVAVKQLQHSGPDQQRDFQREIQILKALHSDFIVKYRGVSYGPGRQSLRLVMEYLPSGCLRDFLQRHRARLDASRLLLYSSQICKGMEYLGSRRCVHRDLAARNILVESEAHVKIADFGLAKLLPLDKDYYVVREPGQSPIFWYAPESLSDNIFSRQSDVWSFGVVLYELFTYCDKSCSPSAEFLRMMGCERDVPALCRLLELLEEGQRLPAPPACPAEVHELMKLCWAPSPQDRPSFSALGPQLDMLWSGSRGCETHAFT

Regarding “4-(7-Methoxy-1-methyl-β-carbolin-9-yl)propionitrile [Compound 20-1o]”, the “Human β-Cell proliferation” value in series [1] (10 μM) is 1 (10).
For the compound `COc1ccc2c(c1)[nH]c1c(Cl)nccc12` [Compound 1-5, 1-Chloro-7-Methoxy-9H-β-Carboline], the “human β-cell proliferation (in words)” value is on record as “very good human β-cell proliferation” in series [1] (setting [16]) and “human β-cell proliferation comparable to that of harmine” in [1] (concentration not given).
For `COc1ccc2c(c1)[nH]c1c(N3CCC3)nccc12` [Compound 1-6a, 1-(Azetidin-1-yl)-7-Methoxy-9H-β-Carboline], the “human β-cell proliferation (in words)” value in series [1] (concentration not given) is reported as “did not show any β-cell proliferation”.
Regarding `COc1ccc2c(c1)[nH]c1c(N3CCCC3)nccc12` [Compound 1-6b, 1-(Pyrrolidin-1-yl)-7-Methoxy-9H-β-Carboline], the “human β-cell proliferation (in words)” value in [1] (concentration not given) is on record as “did not show any β-cell proliferation”.
The same measure, in the same setting: with `COc1ccc2c(c1)[nH]c1c(N3CCCC3c3ccccc3)nccc12` (stereo not drawn) [Compound 1-6d, 1-(2-Phenylpyrrolidin-1-yl)-7-Methoxy-9H-β-Carboline] the entry was “did not show any β-cell proliferation”; with `COc1ccc2c(c1)[nH]c1c(N3CCCC3Cc3ccccc3)nccc12` (stereo not drawn) [Compound 1-6f, 1-(2-Benzylpyrrolidin-1-yl)-7-Methoxy-9H-β-Carboline], “did not show any β-cell proliferation”.
Take `COc1ccc2c(c1)[nH]c1c(CO)nccc12` [Compound 2-2, 1-Hydroxymethyl-7-Methoxy-9H-β-Carboline]: the beta cell toxicity result in series [1] (at 30 μM) is given as “did not cause toxicity”. Moreover, the “NFAT2 translocation to nucleus” value in series [2] is “drove NFAT2 translocation to nucleus”. In addition, the “% DMSO Ctrl” value in series [3], in series [4], in [6], in series [7], in series [8] and in series [12] was “no inhibition” in each case. In addition, the remaining binding at 10 µM in [5] turned out to be 37%; in series [9], 99%; in [10] it was 44%; in series [11] it was 77%.
`COc1ccc2c(c1)[nH]c1c(C(C)=O)nccc12` [Compound 3-2, 1-acetyl-7-methoxy-9H-β-carboline]: the “human β-cell proliferation (in words)” value was “reduced β-cell proliferation” in series [1] (setting [16]), “proliferation in the range comparable to harmine” in series [1] (30 μM) and “human β-cell proliferation comparable to that of harmine” in [1] (concentration not given).
As to `Cc1nccc2c1[nH]c1cc(OCCCCCC(N)=O)ccc12` [Compound 10-3e, 6-(7-oxy-1-methyl-9-H-b-carbolin)hexanamide], the “Human β-Cell proliferation” value in [1] (10 μM) was 0.2 (10). Besides, the “human β-cell proliferation (in words)” value in series [1] (concentration not given) is “reduced jβ-cell proliferation compared to harmine”.
By IC50 is commonly meant the point on the concentration scale where inhibition reaches its midpoint. Compound `C=CCn1c2cc(OC)ccc2c2ccnc(C)c21` [Compound 20-1t, 3-(7-Methoxy-1-methyl-β-carbolin-9-yl)-propan-1-ene] came in with an IC50 in series [13] of 0.042 µM.
On the same count and under the same terms, the result for `COc1ccc2c3ccnc(C)c3n(Cc3ccccc3)c2c1` [Compound 20-1x, 1-(7-Methoxy-1-methyl-β-carbolin-9-yl)-1-phenylmethane] reads 0.275 µM.
On the same count and under the same terms, with `COc1ccc2c3ccnc(C)c3n(CCc3ccccc3)c2c1` [Compound 20-1y, 2-(7-Methoxy-1-methyl-β-carbolin-9-yl)-1-phenylethane] the figure was 0.031 µM.
In the case of `COc1ccc2c3ccnc(C)c3n(CCCC(N)=O)c2c1` [Compound 20-2c, 4-(7-Methoxy-1-methyl-β-carbolin-9-yl)butanamide], the results for the “% DMSO Ctrl” value in series [14] and in series [15] were 57 % DMSO Ctrl and 38 % DMSO Ctrl, respectively.
`CCCC(C)NC(=O)C(C)(C)CCn1c2cc(OC)ccc2c2ccnc(C)c21` (stereo not drawn) [Compound 20-10l, N-(1-methylbutyl)-4-(7-Methoxy-1-methyl-β-carbolin-9-yl)-α,α-dimethylbutanamide] registered an IC50 in series [13] of 0.077 µM.
In [13], `C#CCCn1c2cc(OC)ccc2c2ccnc(C)c21` [Compound 20-23b, 4-(7-Methoxy-1-methyl-β-carbolin-9-yl)-but-1-yne] registered an IC50 of 0.033 µM.
In series [13], `COCCn1cc(CCCn2c3cc(OC)ccc3c3ccnc(C)c32)nn1` [Compound 20-24b, 4-(3-(7-Methoxy-1-methyl-β-carbolin-9-yl)propyl)-1-(2-methoxyethyl)-1,2,3-triazole] showed an IC50 of 0.437 µM.
As for `COc1ccc2c3ccnc(C)c3n(Cc3noc(N)n3)c2c1` [Compound 20-38a, 1-(1-(7-methoxy-1-methyl-β-carbolin-9-yl)methyl)-5-amino-1,2,4-oxadiazole], the IC50 in series [13] is 0.138 µM.
Still for that read-out and setting: the result for `COc1ccc2c3ccnc(C)c3n(CCc3noc(N)n3)c2c1` [Compound 20-38b, 3-(3-(7-methoxy-1-methyl-β-carbolin-9-yl)ethyl)-5-amino-1,2,4-oxadiazole] reads 0.066 µM.
Turning to `COc1ccc2c3ccnc(C)c3n(CCCCc3noc(N)n3)c2c1` [Compound 20-38c, 5-(5-(7-methoxy-1-methyl-β-carbolin-9-yl)butyl)-5-amino-1,2,4-oxadiazole], the IC50 in series [13] is 0.103 µM.
On the same count and under the same terms, with `COc1ccc2c3ccnc(C)c3n(CCC(C)(C)C(N)=O)c2c1` [Compound 20-40, 2,2-dimethyl-4-(7-Methoxy-1-methyl-β-carbolin-9-yl)butanamide] the figure was 0.02 µM.
For “Ethyl 4-(7-Methoxy-1-methyl-β-carbolin-9-yl)butanecarboximidate hydrochloride [Compound 20-22]”, the “Human β-Cell proliferation” value in series [1] (10 μM) is given as 0.8 (10).
